Experiments:
[1] = target: cGMP-dependent 3',5'-cyclic phosphodiesterase (Homo sapiens, UniProt O00408); assay: Inhibition of human recombinant PDE2A using cGMP as substrate incubated for 20 mins measured by Kinase Glo reagent based microplate reader assay
[2] = target: 3',5'-cyclic-AMP phosphodiesterase 4B (Homo sapiens, UniProt Q07343); assay: Inhibition of human recombinant PDE4B using cAMP as substrate incubated for 20 mins measured by Kinase Glo reagent based microplate reader assay
[3] = target: High affinity 3',5'-cyclic-AMP phosphodiesterase 7A (Homo sapiens, UniProt Q13946); assay: Inhibition of human recombinant PDE7A using cAMP as substrate incubated for 20 mins measured by Kinase Glo reagent based microplate reader assay
High affinity 3',5'-cyclic-AMP phosphodiesterase 7A, sequence (Q13946 whole entry): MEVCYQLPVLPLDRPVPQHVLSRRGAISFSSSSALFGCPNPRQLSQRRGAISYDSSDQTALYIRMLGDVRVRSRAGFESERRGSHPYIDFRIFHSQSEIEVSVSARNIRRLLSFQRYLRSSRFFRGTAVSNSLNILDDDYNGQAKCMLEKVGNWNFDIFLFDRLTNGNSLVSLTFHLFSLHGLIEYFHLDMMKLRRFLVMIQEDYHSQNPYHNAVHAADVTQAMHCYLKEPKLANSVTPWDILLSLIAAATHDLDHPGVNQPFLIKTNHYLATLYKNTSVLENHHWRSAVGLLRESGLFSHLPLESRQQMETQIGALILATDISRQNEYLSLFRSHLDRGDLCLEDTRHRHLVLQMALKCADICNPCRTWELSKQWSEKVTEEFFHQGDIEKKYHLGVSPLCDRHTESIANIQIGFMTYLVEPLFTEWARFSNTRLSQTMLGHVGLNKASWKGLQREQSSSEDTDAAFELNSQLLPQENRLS

3',5'-cyclic-AMP phosphodiesterase 4B, sequence (Q07343 whole entry): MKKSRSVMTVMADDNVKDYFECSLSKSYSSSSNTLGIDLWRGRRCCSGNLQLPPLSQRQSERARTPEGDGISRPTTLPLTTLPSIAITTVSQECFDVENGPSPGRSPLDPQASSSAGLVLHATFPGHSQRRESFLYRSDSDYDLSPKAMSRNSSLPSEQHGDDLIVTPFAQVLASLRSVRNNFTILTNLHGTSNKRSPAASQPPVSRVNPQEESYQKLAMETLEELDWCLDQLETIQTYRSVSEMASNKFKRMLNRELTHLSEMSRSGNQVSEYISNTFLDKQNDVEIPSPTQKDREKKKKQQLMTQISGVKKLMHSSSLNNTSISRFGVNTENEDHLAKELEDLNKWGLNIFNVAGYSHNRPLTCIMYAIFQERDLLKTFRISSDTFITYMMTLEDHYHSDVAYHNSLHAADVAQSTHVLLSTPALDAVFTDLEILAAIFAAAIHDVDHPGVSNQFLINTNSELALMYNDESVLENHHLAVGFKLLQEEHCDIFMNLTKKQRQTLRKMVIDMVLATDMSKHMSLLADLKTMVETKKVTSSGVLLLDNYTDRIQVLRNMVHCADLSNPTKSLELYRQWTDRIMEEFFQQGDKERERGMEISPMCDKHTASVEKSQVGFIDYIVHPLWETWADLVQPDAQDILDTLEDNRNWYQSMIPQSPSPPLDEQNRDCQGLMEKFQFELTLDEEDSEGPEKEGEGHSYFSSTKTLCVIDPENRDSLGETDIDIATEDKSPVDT
cGMP-dependent 3',5'-cyclic phosphodiesterase, sequence (O00408 whole entry): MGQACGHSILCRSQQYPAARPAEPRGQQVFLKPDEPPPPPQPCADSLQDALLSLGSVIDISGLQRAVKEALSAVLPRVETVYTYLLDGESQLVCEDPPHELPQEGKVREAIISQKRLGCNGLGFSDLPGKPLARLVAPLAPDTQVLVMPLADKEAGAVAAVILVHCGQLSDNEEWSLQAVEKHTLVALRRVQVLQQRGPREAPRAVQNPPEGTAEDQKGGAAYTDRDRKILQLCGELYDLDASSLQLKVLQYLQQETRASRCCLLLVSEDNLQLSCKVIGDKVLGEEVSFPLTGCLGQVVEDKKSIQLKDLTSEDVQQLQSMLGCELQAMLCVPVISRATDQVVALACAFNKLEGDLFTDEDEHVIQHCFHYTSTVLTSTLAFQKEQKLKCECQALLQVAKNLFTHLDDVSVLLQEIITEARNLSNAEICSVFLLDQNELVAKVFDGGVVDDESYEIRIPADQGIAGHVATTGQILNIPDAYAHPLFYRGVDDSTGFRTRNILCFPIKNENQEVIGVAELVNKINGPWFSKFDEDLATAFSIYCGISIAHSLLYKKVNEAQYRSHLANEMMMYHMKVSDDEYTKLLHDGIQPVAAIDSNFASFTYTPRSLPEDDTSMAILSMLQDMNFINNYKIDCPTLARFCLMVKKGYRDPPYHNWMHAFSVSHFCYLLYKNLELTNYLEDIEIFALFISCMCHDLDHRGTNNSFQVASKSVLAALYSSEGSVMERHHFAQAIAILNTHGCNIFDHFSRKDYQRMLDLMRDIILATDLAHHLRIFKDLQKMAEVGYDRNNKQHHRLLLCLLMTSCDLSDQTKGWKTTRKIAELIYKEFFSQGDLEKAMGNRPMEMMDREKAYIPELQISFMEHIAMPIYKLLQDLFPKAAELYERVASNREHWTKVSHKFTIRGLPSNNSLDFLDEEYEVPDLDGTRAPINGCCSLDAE

SMILES	IC50 [1] [nM]	IC50 [2] [µM]	IC50 [3] [µM]
CCCCCC[C@H]([C@H](C)O)n1cnc2c(N)ncnc21 [(+)-EHNA]	2620		
Nc1ccnc2c1nc(-c1ccccc1)n2CCN1CCCCC1		103	> 200
c1coc(-c2nc3c(NCCc4cccs4)ccnc3n2C2CCCC2)c1		3.25	> 200
CCCCCn1c(-c2ccccc2)nc2c(NCc3ccccc3)nccc21		102	> 200
Cc1ccc([N+](=O)[O-])cc1S(=O)(=O)N(C)C			2.32
CCCCCn1c(-c2ccccc2)nc2c(NCc3ccccc3)ccnc21		16.9	> 200
CCCCCn1c(-c2ccco2)nc2c(N(C)CCCO)ccnc21		18	18.8
CCCCCn1c(-c2ccccc2)nc2c(NCCc3cccs3)nccc21		15.6	> 200
COCCCNc1ccnc2c1nc(-c1ccco1)n2C1CCCC1		8.6	90.5

— ChEMBL document CHEMBL4732047, “New imidazopyridines with phosphodiesterase 4 and 7 inhibitory activity and their efficacy in animal models of inflammatory and autoimmune diseases” (Eur J Med Chem, 2021)
